Reference: the kinase profiling compilation of Christmann-Franck et al. (2016)

Tests used:
Assay in all cases: KINOMEscan competition binding
Conditions in all cases: compound 10.0 µM
AURKA (human) = AURKA (human) (UniProt O14965)
BMPR1A (human) = BMPR1A (human) (UniProt P36894)
CAMKK2 (human) = CAMKK2 (human) (UniProt Q96RR4)
CDK5 (human) = CDK5 (human) (UniProt Q00535)
CDKL2 (human) = CDKL2 (human) (UniProt Q92772)
CHEK2 (human) = CHEK2 (human) (UniProt O96017)
CLK4 (human) = CLK4 (human) (UniProt Q9HAZ1)
CSK (human) = CSK (human) (UniProt P41240)
CSNK1G2 (human) = CSNK1G2 (human) (UniProt P78368)
EPHB3 (human) = EPHB3 (human) (UniProt P54753)
FGFR2 (human) = FGFR2 (human) (UniProt P21802)
FGFR4 (human) = FGFR4 (human) (UniProt P22455)
INSR (human) = INSR (human) (UniProt P06213)
IRAK3 (human) = IRAK3 (human) (UniProt Q9Y616)
KDR (human) = KDR (human) (UniProt P35968)
Chain of KDR (human) (P35968 whole entry, looked up): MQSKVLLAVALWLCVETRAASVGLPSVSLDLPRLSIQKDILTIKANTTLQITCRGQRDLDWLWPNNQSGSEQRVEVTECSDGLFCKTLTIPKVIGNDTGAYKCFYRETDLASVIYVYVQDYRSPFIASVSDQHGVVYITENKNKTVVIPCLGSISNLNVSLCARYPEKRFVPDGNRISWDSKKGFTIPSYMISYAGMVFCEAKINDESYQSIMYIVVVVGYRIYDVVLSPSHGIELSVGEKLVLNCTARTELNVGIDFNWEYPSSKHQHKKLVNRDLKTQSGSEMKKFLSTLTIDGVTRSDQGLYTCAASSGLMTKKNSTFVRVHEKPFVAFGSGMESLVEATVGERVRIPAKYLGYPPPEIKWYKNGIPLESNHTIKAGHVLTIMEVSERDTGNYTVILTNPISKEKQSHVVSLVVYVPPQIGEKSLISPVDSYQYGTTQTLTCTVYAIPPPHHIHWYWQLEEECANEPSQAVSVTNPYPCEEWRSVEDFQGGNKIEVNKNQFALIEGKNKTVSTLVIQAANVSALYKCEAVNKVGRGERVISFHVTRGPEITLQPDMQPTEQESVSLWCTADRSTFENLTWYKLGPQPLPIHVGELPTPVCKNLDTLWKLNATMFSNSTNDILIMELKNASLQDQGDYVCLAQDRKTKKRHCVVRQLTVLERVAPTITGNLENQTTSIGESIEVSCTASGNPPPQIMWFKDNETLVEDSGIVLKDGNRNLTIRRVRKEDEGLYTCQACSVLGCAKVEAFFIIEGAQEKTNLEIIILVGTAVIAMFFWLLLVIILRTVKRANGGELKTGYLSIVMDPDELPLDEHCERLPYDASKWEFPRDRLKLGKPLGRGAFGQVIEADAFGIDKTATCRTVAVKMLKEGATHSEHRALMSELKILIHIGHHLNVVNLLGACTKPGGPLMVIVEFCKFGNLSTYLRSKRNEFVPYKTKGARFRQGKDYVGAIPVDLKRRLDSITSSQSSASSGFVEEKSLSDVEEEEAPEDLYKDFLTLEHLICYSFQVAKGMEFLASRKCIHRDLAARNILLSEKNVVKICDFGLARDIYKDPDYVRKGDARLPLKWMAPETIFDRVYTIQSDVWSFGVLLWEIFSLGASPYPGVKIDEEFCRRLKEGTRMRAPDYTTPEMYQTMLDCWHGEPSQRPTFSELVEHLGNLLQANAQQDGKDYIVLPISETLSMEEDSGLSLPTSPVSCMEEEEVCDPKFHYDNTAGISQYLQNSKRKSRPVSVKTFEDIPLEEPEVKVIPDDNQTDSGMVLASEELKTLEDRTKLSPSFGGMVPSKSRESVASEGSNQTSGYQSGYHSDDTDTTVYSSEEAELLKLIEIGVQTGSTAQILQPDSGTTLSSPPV

[1] = system: KIT (human), P10721 [V559D]
MAP2K4 (human) = MAP2K4 (human) (UniProt P45985)
MAP3K12 (human) = MAP3K12 (human) (UniProt Q12852)
MAP3K9 (human) = MAP3K9 (human) (UniProt P80192)
MAP4K3 (human) = MAP4K3 (human) (UniProt Q8IVH8)
MAP4K4 (human) = MAP4K4 (human) (UniProt O95819)
MAPK6 (human) = MAPK6 (human) (UniProt Q16659)
MYLK4 (human) = MYLK4 (human) (UniProt Q86YV6)
MYO3B (human) = MYO3B (human) (UniProt Q8WXR4)
NTRK3 (human) = NTRK3 (human) (UniProt Q16288)
PAK1 (human) = PAK1 (human) (UniProt Q13153)
Chain of PAK1 (human) (Q13153 whole entry, looked up): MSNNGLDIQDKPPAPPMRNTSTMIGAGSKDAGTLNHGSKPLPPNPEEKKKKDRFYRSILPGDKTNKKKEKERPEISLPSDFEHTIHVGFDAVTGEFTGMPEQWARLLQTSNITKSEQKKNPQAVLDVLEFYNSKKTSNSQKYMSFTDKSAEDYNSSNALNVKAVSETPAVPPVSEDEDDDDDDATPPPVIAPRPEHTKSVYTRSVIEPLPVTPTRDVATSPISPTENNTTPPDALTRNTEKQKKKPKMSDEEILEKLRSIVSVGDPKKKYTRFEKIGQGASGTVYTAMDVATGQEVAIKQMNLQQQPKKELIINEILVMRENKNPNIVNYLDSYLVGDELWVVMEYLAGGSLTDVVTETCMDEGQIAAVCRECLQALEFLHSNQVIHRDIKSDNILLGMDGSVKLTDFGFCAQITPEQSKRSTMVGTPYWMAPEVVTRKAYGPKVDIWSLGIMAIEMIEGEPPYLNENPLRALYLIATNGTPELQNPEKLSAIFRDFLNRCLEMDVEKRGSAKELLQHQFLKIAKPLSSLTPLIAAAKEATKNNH

PAK2 (human) = PAK2 (human) (UniProt Q13177)
Chain of PAK2 (human) (Q13177 whole entry, looked up): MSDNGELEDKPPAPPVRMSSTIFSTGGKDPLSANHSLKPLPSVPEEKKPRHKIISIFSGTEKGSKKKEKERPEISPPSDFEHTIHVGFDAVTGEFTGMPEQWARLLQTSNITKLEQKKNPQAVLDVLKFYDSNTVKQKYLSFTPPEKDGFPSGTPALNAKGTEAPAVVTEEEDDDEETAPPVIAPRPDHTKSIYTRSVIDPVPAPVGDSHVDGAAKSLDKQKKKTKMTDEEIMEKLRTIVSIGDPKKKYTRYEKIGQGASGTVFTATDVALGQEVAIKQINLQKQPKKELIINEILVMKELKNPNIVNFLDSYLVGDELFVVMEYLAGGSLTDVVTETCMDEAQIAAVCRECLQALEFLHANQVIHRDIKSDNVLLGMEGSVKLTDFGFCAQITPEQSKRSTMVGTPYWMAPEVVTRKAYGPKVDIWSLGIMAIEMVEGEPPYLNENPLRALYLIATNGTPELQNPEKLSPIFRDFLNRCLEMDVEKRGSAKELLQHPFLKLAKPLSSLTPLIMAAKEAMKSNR

PDGFRA (human) = PDGFRA (human) (UniProt P16234)
Chain of PDGFRA (human) (P16234 whole entry, looked up): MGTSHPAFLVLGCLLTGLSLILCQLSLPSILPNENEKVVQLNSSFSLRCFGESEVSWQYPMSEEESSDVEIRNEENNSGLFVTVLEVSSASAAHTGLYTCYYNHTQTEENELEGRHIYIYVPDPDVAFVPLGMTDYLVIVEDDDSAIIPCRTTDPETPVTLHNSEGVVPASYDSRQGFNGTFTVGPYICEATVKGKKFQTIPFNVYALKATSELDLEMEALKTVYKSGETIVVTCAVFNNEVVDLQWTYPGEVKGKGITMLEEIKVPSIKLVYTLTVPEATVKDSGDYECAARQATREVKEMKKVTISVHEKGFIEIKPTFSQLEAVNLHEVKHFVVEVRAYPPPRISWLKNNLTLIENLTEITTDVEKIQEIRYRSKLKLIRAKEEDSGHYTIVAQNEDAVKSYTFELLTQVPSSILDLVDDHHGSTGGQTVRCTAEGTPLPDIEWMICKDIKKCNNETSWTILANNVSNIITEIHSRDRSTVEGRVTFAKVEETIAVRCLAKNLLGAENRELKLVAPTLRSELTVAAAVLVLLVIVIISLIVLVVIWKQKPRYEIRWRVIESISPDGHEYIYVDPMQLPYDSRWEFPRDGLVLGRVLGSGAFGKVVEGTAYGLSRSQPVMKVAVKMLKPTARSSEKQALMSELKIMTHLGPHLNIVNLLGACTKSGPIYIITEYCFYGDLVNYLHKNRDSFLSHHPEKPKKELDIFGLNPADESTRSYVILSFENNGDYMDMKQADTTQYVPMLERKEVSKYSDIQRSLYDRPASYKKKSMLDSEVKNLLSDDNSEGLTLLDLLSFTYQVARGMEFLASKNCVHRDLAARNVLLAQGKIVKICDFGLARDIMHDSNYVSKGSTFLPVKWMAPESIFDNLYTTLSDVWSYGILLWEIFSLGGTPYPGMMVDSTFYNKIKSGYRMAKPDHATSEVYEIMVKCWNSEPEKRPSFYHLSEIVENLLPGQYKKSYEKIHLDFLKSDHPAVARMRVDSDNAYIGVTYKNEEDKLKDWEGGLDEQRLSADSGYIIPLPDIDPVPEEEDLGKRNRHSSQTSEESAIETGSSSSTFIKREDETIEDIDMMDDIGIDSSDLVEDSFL

PIP5K1A (human) = PIP5K1A (human) (UniProt Q99755)
PRKCQ (human) = PRKCQ (human) (UniProt Q04759)
RIPK4 (human) = RIPK4 (human) (UniProt P57078)
ROCK2 (human) = ROCK2 (human) (UniProt O75116)
RPS6KA2 KD2 (human) = RPS6KA2 KD2 (human) (UniProt Q15349)
Chain of RPS6KA2 KD2 (human) (Q15349 whole entry, looked up): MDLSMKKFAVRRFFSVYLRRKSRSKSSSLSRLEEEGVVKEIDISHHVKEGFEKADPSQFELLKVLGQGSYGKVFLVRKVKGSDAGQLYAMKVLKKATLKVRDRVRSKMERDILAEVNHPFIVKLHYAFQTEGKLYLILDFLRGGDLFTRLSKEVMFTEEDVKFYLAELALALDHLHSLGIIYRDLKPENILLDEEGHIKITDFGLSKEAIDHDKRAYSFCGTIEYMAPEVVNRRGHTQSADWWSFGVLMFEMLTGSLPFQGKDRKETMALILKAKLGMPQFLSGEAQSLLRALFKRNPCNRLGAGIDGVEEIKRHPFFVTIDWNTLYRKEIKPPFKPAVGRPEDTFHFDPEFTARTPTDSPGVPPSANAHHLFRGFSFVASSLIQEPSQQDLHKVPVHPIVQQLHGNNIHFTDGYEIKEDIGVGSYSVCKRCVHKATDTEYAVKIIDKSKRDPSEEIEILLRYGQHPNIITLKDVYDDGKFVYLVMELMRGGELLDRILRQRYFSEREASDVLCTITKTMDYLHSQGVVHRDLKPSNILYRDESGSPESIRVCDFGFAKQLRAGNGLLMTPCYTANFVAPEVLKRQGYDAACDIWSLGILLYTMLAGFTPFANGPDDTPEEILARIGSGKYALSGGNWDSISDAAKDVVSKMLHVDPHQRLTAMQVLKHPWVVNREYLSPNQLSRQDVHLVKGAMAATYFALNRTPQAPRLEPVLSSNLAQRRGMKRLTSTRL

RPS6KA3 KD1 (human) = RPS6KA3 KD1 (human) (UniProt P51812)
RPS6KA4 KD2 (human) = RPS6KA4 KD2 (human) (UniProt O75676)
RPS6KA5 KD2 (human) = RPS6KA5 KD2 (human) (UniProt O75582)
Chain of RPS6KA5 KD2 (human) (O75582 whole entry, looked up): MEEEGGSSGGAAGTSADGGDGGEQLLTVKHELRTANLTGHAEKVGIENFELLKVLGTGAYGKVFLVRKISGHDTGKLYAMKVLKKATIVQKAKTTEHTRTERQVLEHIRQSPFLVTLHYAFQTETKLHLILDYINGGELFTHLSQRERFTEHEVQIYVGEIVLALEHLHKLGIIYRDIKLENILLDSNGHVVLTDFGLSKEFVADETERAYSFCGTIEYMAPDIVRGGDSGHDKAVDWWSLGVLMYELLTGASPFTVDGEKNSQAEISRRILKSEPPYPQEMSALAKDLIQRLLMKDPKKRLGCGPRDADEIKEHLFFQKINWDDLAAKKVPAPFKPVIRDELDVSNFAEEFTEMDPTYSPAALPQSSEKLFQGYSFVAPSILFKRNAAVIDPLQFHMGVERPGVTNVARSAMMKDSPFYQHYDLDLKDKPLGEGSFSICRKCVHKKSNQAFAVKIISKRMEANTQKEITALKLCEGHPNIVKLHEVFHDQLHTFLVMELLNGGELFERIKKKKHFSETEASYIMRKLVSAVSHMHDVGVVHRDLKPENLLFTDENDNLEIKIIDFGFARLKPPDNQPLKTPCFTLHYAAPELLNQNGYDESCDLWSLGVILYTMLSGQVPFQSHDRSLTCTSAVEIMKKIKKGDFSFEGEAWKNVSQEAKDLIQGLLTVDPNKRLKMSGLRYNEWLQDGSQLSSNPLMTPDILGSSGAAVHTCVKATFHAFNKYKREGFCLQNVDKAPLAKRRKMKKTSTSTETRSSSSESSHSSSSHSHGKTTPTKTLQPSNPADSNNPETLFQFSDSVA

STK10 (human) = STK10 (human) (UniProt O94804)
STK32B (human) = STK32B (human) (UniProt Q9NY57)
TESK1 (human) = TESK1 (human) (UniProt Q15569)
[2] = molecular target: TYK2 JH2 pseudokinase (human) (UniProt P29597)

SMILES | kinase still bound, per cent of control (AURKA (human)) [%] | kinase still bound, per cent of control (BMPR1A (human)) [%] | kinase still bound, per cent of control (CAMKK2 (human)) [%] | kinase still bound, per cent of control (CDK5 (human)) [%] | kinase still bound, per cent of control (CDKL2 (human)) [%] | kinase still bound, per cent of control (CHEK2 (human)) [%] | kinase still bound, per cent of control (CLK4 (human)) [%] | kinase still bound, per cent of control (CSK (human)) [%] | kinase still bound, per cent of control (CSNK1G2 (human)) [%] | kinase still bound, per cent of control (EPHB3 (human)) [%] | kinase still bound, per cent of control (FGFR2 (human)) [%] | kinase still bound, per cent of control (FGFR4 (human)) [%] | kinase still bound, per cent of control (INSR (human)) [%] | kinase still bound, per cent of control (IRAK3 (human)) [%] | kinase still bound, per cent of control (KDR (human)) [%] | kinase still bound, per cent of control [1] [%] | kinase still bound, per cent of control (MAP2K4 (human)) [%] | kinase still bound, per cent of control (MAP3K12 (human)) [%] | kinase still bound, per cent of control (MAP3K9 (human)) [%] | kinase still bound, per cent of control (MAP4K3 (human)) [%] | also measured
COc1cc(C(=O)NC2CCN(C)CC2)ccc1Nc1ncc2c(n1)N(C1CCCC1)C(C)CC(=O)N2C (stereo not given) | 100 | 100 | 24 | 100 | 100 | 100 | 100 | 100 | 100 | 100 | 100 | 100 | 100 | 100 | 100 | 100 | 100 | 100 | 100 | 100 | kinase still bound, per cent of control (MAP4K4 (human)): 100%; kinase still bound, per cent of control (MAPK6 (human)): 100%; kinase still bound, per cent of control (MYLK4 (human)): 100%; kinase still bound, per cent of control (MYO3B (human)): 100%; kinase still bound, per cent of control (NTRK3 (human)): 100%; kinase still bound, per cent of control (PAK1 (human)): 100%; kinase still bound, per cent of control (PAK2 (human)): 100%; kinase still bound, per cent of control (PDGFRA (human)): 100%; kinase still bound, per cent of control (PIP5K1A (human)): 100%; kinase still bound, per cent of control (PRKCQ (human)): 100%; kinase still bound, per cent of control (RIPK4 (human)): 100%; kinase still bound, per cent of control (ROCK2 (human)): 100%; kinase still bound, per cent of control (RPS6KA2 KD2 (human)): 5.8%; kinase still bound, per cent of control (RPS6KA3 KD1 (human)): 100%; kinase still bound, per cent of control (RPS6KA4 KD2 (human)): 100%; kinase still bound, per cent of control (RPS6KA5 KD2 (human)): 100%; kinase still bound, per cent of control (STK10 (human)): 29%; kinase still bound, per cent of control (STK32B (human)): 100%; kinase still bound, per cent of control (TESK1 (human)): 100%; kinase still bound, per cent of control [2]: 100%
N#Cc1c(NC(=O)c2cccc3ccccc23)sc2c1CCCC2 | 100 | 96 | 94 | 100 | 97 | 84 | 84 | 95 | 57 | 98 | 100 | 49 | 100 | 100 | 96 | 60 | 94 | 79 | 72 | 79 | kinase still bound, per cent of control (MAP4K4 (human)): 66%; kinase still bound, per cent of control (MAPK6 (human)): 86%; kinase still bound, per cent of control (MYLK4 (human)): 98%; kinase still bound, per cent of control (MYO3B (human)): 88%; kinase still bound, per cent of control (NTRK3 (human)): 86%; kinase still bound, per cent of control (PAK1 (human)): 100%; kinase still bound, per cent of control (PAK2 (human)): 97%; kinase still bound, per cent of control (PDGFRA (human)): 89%; kinase still bound, per cent of control (PIP5K1A (human)): 100%; kinase still bound, per cent of control (PRKCQ (human)): 86%; kinase still bound, per cent of control (RIPK4 (human)): 96%; kinase still bound, per cent of control (ROCK2 (human)): 100%; kinase still bound, per cent of control (RPS6KA2 KD2 (human)): 79%; kinase still bound, per cent of control (RPS6KA3 KD1 (human)): 100%; kinase still bound, per cent of control (RPS6KA4 KD2 (human)): 100%; kinase still bound, per cent of control (RPS6KA5 KD2 (human)): 95%; kinase still bound, per cent of control (STK10 (human)): 67%; kinase still bound, per cent of control (STK32B (human)): 83%; kinase still bound, per cent of control (TESK1 (human)): 83%; kinase still bound, per cent of control [2]: 100%
